Numbers after ± are expanded uncertainties.

One data set is described as follows: activity coefficient (dimensionless); of the first substance listed, at infinite dilution; xn = mol fraction of the nth substance listed. To be noted: 308.15 K; 101 kPa; Liquid; Chromatography; x1 = 0.
Take `C=CCCCCCCCC` [1-decene] + CCCCCC[n+]1ccc2ccccc2c1.N#C[S-]: the activity coefficient came out at 50.6 ± 3.5.

In the case of `C=CCCCCC` [1-heptene] + CCCCCC[n+]1ccc2ccccc2c1.N#C[S-], the activity coefficient was found to be 23.5 ± 1.6.

On to `C#CCCCCC` [1-heptyne] + CCCCCC[n+]1ccc2ccccc2c1.N#C[S-], for which the activity coefficient amounted to 4.77 ± 0.33.

Take `C#CCCCC` [1-hexyne] + CCCCCC[n+]1ccc2ccccc2c1.N#C[S-]: the activity coefficient amounted to 3.57 ± 0.24.

For `C#CCCCCCC` [1-octyne] + CCCCCC[n+]1ccc2ccccc2c1.N#C[S-], the activity coefficient turned out to be 6.31 ± 0.43.

Regarding `C=CCCC` [1-pentene] + CCCCCC[n+]1ccc2ccccc2c1.N#C[S-], the activity coefficient worked out at 18.4 ± 1.3.

Regarding `C#CCCC` [1-pentyne] + CCCCCC[n+]1ccc2ccccc2c1.N#C[S-], the activity coefficient was 2.79 ± 0.19.

Take `CC(C)CC(C)(C)C` [2,2,4-trimethylpentane] + CCCCCC[n+]1ccc2ccccc2c1.N#C[S-]: the activity coefficient was found to be 96.5 ± 6.6.

With `CCC(C)(C)C` [2,2-dimethylbutane] + CCCCCC[n+]1ccc2ccccc2c1.N#C[S-], the activity coefficient stood at 91.5 ± 6.3.

Turning to `CCOC(C)(C)C` [2-ethoxy-2-methylpropane] + CCCCCC[n+]1ccc2ccccc2c1.N#C[S-], the activity coefficient is 20.6 ± 1.4.

As to `CCC(C)(C)OC` [2-methoxy-2-methylbutane] + CCCCCC[n+]1ccc2ccccc2c1.N#C[S-], the activity coefficient stood at 9.8 ± 0.67.

Consider `COC(C)(C)C` [2-methoxy-2-methylpropane] + CCCCCC[n+]1ccc2ccccc2c1.N#C[S-], for which the activity coefficient is 8.61 ± 0.59.

With `CCC(C)CC` [3-methylpentane] + CCCCCC[n+]1ccc2ccccc2c1.N#C[S-], the activity coefficient was 52.3 ± 3.6.

Consider `C1CCCCCC1` [cycloheptane] + CCCCCC[n+]1ccc2ccccc2c1.N#C[S-], for which the activity coefficient turned out to be 17 ± 1.2.

As for `C1CCCCC1` [cyclohexane] + CCCCCC[n+]1ccc2ccccc2c1.N#C[S-], the activity coefficient amounted to 15.4 ± 1.1.

Take `C1=CCCCC1` [cyclohexene] + CCCCCC[n+]1ccc2ccccc2c1.N#C[S-]: the activity coefficient is 7.2 ± 0.49.

The data set is the same for the next values; noted with them: 318.15 K; 101 kPa; Liquid; Chromatography; x1 = 0.
`C=CCCCCCCCC` [1-decene] + CCCCCC[n+]1ccc2ccccc2c1.N#C[S-]: the activity coefficient stood at 48.1 ± 3.3.

On to `C=CCCCCC` [1-heptene] + CCCCCC[n+]1ccc2ccccc2c1.N#C[S-], for which the activity coefficient was 22 ± 1.5.

As to `C#CCCCCC` [1-heptyne] + CCCCCC[n+]1ccc2ccccc2c1.N#C[S-], the activity coefficient was 4.85 ± 0.33.

Turning to `C#CCCCC` [1-hexyne] + CCCCCC[n+]1ccc2ccccc2c1.N#C[S-], the activity coefficient was 3.64 ± 0.25.

With `C#CCCCCCC` [1-octyne] + CCCCCC[n+]1ccc2ccccc2c1.N#C[S-], the activity coefficient is 6.43 ± 0.44.

As to `C=CCCC` [1-pentene] + CCCCCC[n+]1ccc2ccccc2c1.N#C[S-], the activity coefficient was found to be 16.2 ± 1.1.

With `C#CCCC` [1-pentyne] + CCCCCC[n+]1ccc2ccccc2c1.N#C[S-], the activity coefficient worked out at 2.85 ± 0.19.

Regarding `CC(C)CC(C)(C)C` [2,2,4-trimethylpentane] + CCCCCC[n+]1ccc2ccccc2c1.N#C[S-], the activity coefficient came out at 79.7 ± 5.5.

With `CCC(C)(C)C` [2,2-dimethylbutane] + CCCCCC[n+]1ccc2ccccc2c1.N#C[S-], the activity coefficient is 72.2 ± 4.9.

As to `CCOC(C)(C)C` [2-ethoxy-2-methylpropane] + CCCCCC[n+]1ccc2ccccc2c1.N#C[S-], the activity coefficient was found to be 18.6 ± 1.3.

`CCC(C)(C)OC` [2-methoxy-2-methylbutane] + CCCCCC[n+]1ccc2ccccc2c1.N#C[S-]: the activity coefficient was found to be 9.34 ± 0.64.

Regarding `COC(C)(C)C` [2-methoxy-2-methylpropane] + CCCCCC[n+]1ccc2ccccc2c1.N#C[S-], the activity coefficient stood at 8.13 ± 0.55.

With `CCC(C)CC` [3-methylpentane] + CCCCCC[n+]1ccc2ccccc2c1.N#C[S-], the activity coefficient is 43.4 ± 3.

Consider `C1CCCCCC1` [cycloheptane] + CCCCCC[n+]1ccc2ccccc2c1.N#C[S-], for which the activity coefficient worked out at 15.8 ± 1.1.

With `C1CCCCC1` [cyclohexane] + CCCCCC[n+]1ccc2ccccc2c1.N#C[S-], the activity coefficient worked out at 14.2 ± 1.

As for `C1=CCCCC1` [cyclohexene] + CCCCCC[n+]1ccc2ccccc2c1.N#C[S-], the activity coefficient is 6.9 ± 0.47.

Still in this data set, the particulars now being: 328.15 K; 101 kPa; Liquid; Chromatography; x1 = 0.
Regarding `Cc1ccccc1C` [1,2-dimethylbenzene] + CCCCCC[n+]1ccc2ccccc2c1.N#C[S-], the activity coefficient worked out at 2.35 ± 0.16.

With `Cc1cccc(C)c1` [1,3-dimethylbenzene] + CCCCCC[n+]1ccc2ccccc2c1.N#C[S-], the activity coefficient came out at 2.9 ± 0.2.

With `Cc1ccc(C)cc1` [1,4-dimethylbenzene] + CCCCCC[n+]1ccc2ccccc2c1.N#C[S-], the activity coefficient worked out at 2.82 ± 0.19.

Take `C1COCCO1` [1,4-dioxane] + CCCCCC[n+]1ccc2ccccc2c1.N#C[S-]: the activity coefficient worked out at 1.23 ± 0.08.

Take `C=CCCCCCCCC` [1-decene] + CCCCCC[n+]1ccc2ccccc2c1.N#C[S-]: the activity coefficient is 46.3 ± 3.2.

As to `C=CCCCCC` [1-heptene] + CCCCCC[n+]1ccc2ccccc2c1.N#C[S-], the activity coefficient came out at 20.9 ± 1.4.

As to `C#CCCCCC` [1-heptyne] + CCCCCC[n+]1ccc2ccccc2c1.N#C[S-], the activity coefficient was 4.93 ± 0.34.

As for `C#CCCCC` [1-hexyne] + CCCCCC[n+]1ccc2ccccc2c1.N#C[S-], the activity coefficient was 3.71 ± 0.25.

In the case of `CCC[N+](=O)[O-]` [1-nitropropane] + CCCCCC[n+]1ccc2ccccc2c1.N#C[S-], the activity coefficient turned out to be 1.39 ± 0.09.

In the case of `C#CCCCCCC` [1-octyne] + CCCCCC[n+]1ccc2ccccc2c1.N#C[S-], the activity coefficient stood at 6.52 ± 0.44.

Consider `C=CCCC` [1-pentene] + CCCCCC[n+]1ccc2ccccc2c1.N#C[S-], for which the activity coefficient is 14.5 ± 1.

As for `C#CCCC` [1-pentyne] + CCCCCC[n+]1ccc2ccccc2c1.N#C[S-], the activity coefficient was found to be 2.91 ± 0.2.

For the compound `CC(C)CC(C)(C)C` [2,2,4-trimethylpentane] + CCCCCC[n+]1ccc2ccccc2c1.N#C[S-], the activity coefficient stood at 68.6 ± 4.7.

Take `CCC(C)(C)C` [2,2-dimethylbutane] + CCCCCC[n+]1ccc2ccccc2c1.N#C[S-]: the activity coefficient worked out at 57.2 ± 3.9.

In the case of `CCOC(C)(C)C` [2-ethoxy-2-methylpropane] + CCCCCC[n+]1ccc2ccccc2c1.N#C[S-], the activity coefficient worked out at 17.2 ± 1.2.

As for `CCCCC(C)=O` [2-hexanone] + CCCCCC[n+]1ccc2ccccc2c1.N#C[S-], the activity coefficient is 2.62 ± 0.18.

Consider `CCC(C)(C)OC` [2-methoxy-2-methylbutane] + CCCCCC[n+]1ccc2ccccc2c1.N#C[S-], for which the activity coefficient was 9.01 ± 0.61.

Take `COC(C)(C)C` [2-methoxy-2-methylpropane] + CCCCCC[n+]1ccc2ccccc2c1.N#C[S-]: the activity coefficient turned out to be 7.65 ± 0.52.

With `CCCC(=O)CC` [3-hexanone] + CCCCCC[n+]1ccc2ccccc2c1.N#C[S-], the activity coefficient was 2.86 ± 0.19.

For `CCC(C)CC` [3-methylpentane] + CCCCCC[n+]1ccc2ccccc2c1.N#C[S-], the activity coefficient worked out at 37.8 ± 2.6.

Regarding `CC(C)=O` [acetone] + CCCCCC[n+]1ccc2ccccc2c1.N#C[S-], the activity coefficient was 1.33 ± 0.09.

For the compound `CC#N` [acetonitrile] + CCCCCC[n+]1ccc2ccccc2c1.N#C[S-], the activity coefficient is 1.02 ± 0.06.

As for `c1ccccc1` [benzene] + CCCCCC[n+]1ccc2ccccc2c1.N#C[S-], the activity coefficient is 1.47 ± 0.1.

`CCCCO` [butan-1-ol] + CCCCCC[n+]1ccc2ccccc2c1.N#C[S-]: the activity coefficient worked out at 0.846 ± 0.054.

Turning to `C1CCCCCC1` [cycloheptane] + CCCCCC[n+]1ccc2ccccc2c1.N#C[S-], the activity coefficient was determined as 14.5 ± 1.

Take `C1CCCCC1` [cyclohexane] + CCCCCC[n+]1ccc2ccccc2c1.N#C[S-]: the activity coefficient turned out to be 13.3 ± 0.9.

Consider `C1=CCCCC1` [cyclohexene] + CCCCCC[n+]1ccc2ccccc2c1.N#C[S-], for which the activity coefficient came to 6.6 ± 0.45.

The data set is the same for the next values; noted with them: 338.15 K; 101 kPa; Liquid; Chromatography; x1 = 0.
Take `Cc1ccccc1C` [1,2-dimethylbenzene] + CCCCCC[n+]1ccc2ccccc2c1.N#C[S-]: the activity coefficient was 2.37 ± 0.16.

Consider `Cc1cccc(C)c1` [1,3-dimethylbenzene] + CCCCCC[n+]1ccc2ccccc2c1.N#C[S-], for which the activity coefficient is 2.93 ± 0.2.

Regarding `Cc1ccc(C)cc1` [1,4-dimethylbenzene] + CCCCCC[n+]1ccc2ccccc2c1.N#C[S-], the activity coefficient was found to be 2.85 ± 0.19.

As for `C1COCCO1` [1,4-dioxane] + CCCCCC[n+]1ccc2ccccc2c1.N#C[S-], the activity coefficient amounted to 1.25 ± 0.08.

Turning to `C=CCCCCCCCC` [1-decene] + CCCCCC[n+]1ccc2ccccc2c1.N#C[S-], the activity coefficient was 44.2 ± 3.

Turning to `C=CCCCCC` [1-heptene] + CCCCCC[n+]1ccc2ccccc2c1.N#C[S-], the activity coefficient was 19.5 ± 1.3.

On to `C#CCCCCC` [1-heptyne] + CCCCCC[n+]1ccc2ccccc2c1.N#C[S-], for which the activity coefficient was 5.02 ± 0.34.

Consider `C#CCCCC` [1-hexyne] + CCCCCC[n+]1ccc2ccccc2c1.N#C[S-], for which the activity coefficient is 3.78 ± 0.26.

As to `CCC[N+](=O)[O-]` [1-nitropropane] + CCCCCC[n+]1ccc2ccccc2c1.N#C[S-], the activity coefficient stood at 1.38 ± 0.09.

With `C#CCCCCCC` [1-octyne] + CCCCCC[n+]1ccc2ccccc2c1.N#C[S-], the activity coefficient stood at 6.64 ± 0.45.

`C=CCCC` [1-pentene] + CCCCCC[n+]1ccc2ccccc2c1.N#C[S-]: the activity coefficient is 12.9 ± 0.9.

For `C#CCCC` [1-pentyne] + CCCCCC[n+]1ccc2ccccc2c1.N#C[S-], the activity coefficient was determined as 2.97 ± 0.2.

As for `CC(C)CC(C)(C)C` [2,2,4-trimethylpentane] + CCCCCC[n+]1ccc2ccccc2c1.N#C[S-], the activity coefficient amounted to 57.7 ± 4.

Regarding `CCC(C)(C)C` [2,2-dimethylbutane] + CCCCCC[n+]1ccc2ccccc2c1.N#C[S-], the activity coefficient turned out to be 45.5 ± 3.1.

For the compound `CCOC(C)(C)C` [2-ethoxy-2-methylpropane] + CCCCCC[n+]1ccc2ccccc2c1.N#C[S-], the activity coefficient was found to be 15.7 ± 1.1.

Take `CCCCC(C)=O` [2-hexanone] + CCCCCC[n+]1ccc2ccccc2c1.N#C[S-]: the activity coefficient amounted to 2.63 ± 0.18.

With `CCC(C)(C)OC` [2-methoxy-2-methylbutane] + CCCCCC[n+]1ccc2ccccc2c1.N#C[S-], the activity coefficient was 8.58 ± 0.59.

On to `COC(C)(C)C` [2-methoxy-2-methylpropane] + CCCCCC[n+]1ccc2ccccc2c1.N#C[S-], for which the activity coefficient was determined as 7.18 ± 0.49.

Turning to `CCCC(=O)CC` [3-hexanone] + CCCCCC[n+]1ccc2ccccc2c1.N#C[S-], the activity coefficient is 2.88 ± 0.2.

For `CCC(C)CC` [3-methylpentane] + CCCCCC[n+]1ccc2ccccc2c1.N#C[S-], the activity coefficient worked out at 31.9 ± 2.2.

In the case of `CC(C)=O` [acetone] + CCCCCC[n+]1ccc2ccccc2c1.N#C[S-], the activity coefficient came out at 1.31 ± 0.09.

For `CC#N` [acetonitrile] + CCCCCC[n+]1ccc2ccccc2c1.N#C[S-], the activity coefficient was 1.01 ± 0.06.

As for `c1ccccc1` [benzene] + CCCCCC[n+]1ccc2ccccc2c1.N#C[S-], the activity coefficient amounted to 1.48 ± 0.1.

Take `CCCCO` [butan-1-ol] + CCCCCC[n+]1ccc2ccccc2c1.N#C[S-]: the activity coefficient turned out to be 0.829 ± 0.053.

The record behind these values is the NIST ThermoML archive (doi:10.1016/j.jct.2013.02.004).
